The values below are quoted from earlier work in patent publication US20110071172A1, “SUBSTITUTED QUINAZOLINES AS BLOOD PLATELET LOWERING AGENTS” (Shire LLC, priority 2008, published 2011).

For orientation: half-life means how long it takes for the measured level to halve. A word on the IC50: it is the concentration that gives 50% inhibition.

The test system of data set [1] is human phosphodiesterase 111 (PDE III). To be noted: for IC50: read-out: IC50, PDE III inhibition.
Data set [2] relates to human megakaryocytopoiesis.
Data set [3] deals with erythroid or myelomonocytic differentiation. The following applies: stimulated by erythropoietin or granulocyte-macrophage colony-stimulating factor.

For the molecule `O=C1NC2=Nc3ccc(Cl)c(Cl)c3CN2C1O` (stereo not drawn) [3-hydroxyanagrelide], in data set [1] (ratio versus anagrelide), the “potency as PDE III inhibitor relative to anagrelide” value is “over 40 fold”. The “potency in inhibition of megakaryocytopoiesis relative to parent drug” value in data set [2] (versus anagrelide) was “no more potent than the parent drug”. The half-life (typical) is 2.5 h. In addition, the “exposure in vivo relative to parent drug” value (typical exposures versus anagrelide) was 2-3 fold.

With `O=C1CN2Cc3c(ccc(Cl)c3Cl)N=C2N1` [Anagrelide, 6,7-dichloro-1,5-dihydroimidazo[2,1-b]-quinazolin-2(3H)-one], the IC50 is about 29 nM in data set [1] and about 26 nM in data set [2] (estimated, in vitro, dose-dependent, read-out: IC50, inhibition of TPO-induced megakaryocytopoiesis). The “effect on erythroid or myelomonocytic differentiation” value in data set [3] is recorded as “does not affect”. For the same molecule, the first pass effect (in vivo) was over 50%.

For the molecule `Cc1[nH]c(=O)c(C#N)cc1-c1ccncc1` [milrinone], the IC50 in data set [1] is 170 to 350 nM.
